The record followed here is patent US7981997B2, “Growth factor which acts through ErbB-4 RTK” (Yeda Research And Development Co., priority 2000, dated 2011).

For experiment [1], the system named is D1 cells (32D expressing ErbB-1). Nature of the experiment: 32D cell proliferation, 24-hour dose-response MTT assay. Type of experiment: cell-based. Conditions: 24-hour dose-response, without IL-3. As for the experimental part: The indicated derivative lines of 32D cells were tested for cell proliferation using the [3-(4,5-dimethylthiazol-2-yl)-2,5-diphenyl]tetrazolium bromide (MTT) assay. […] The MT assay was performed 24 hours later. Results are presented as percent induction over the control untreated cells, and are the mean±S.D. of 4 determinations. Each experiment was repeated at least twice with similar findings.
(§1) The establishment of a series of interleukin 3 (IL-3)-dependent 32D myeloid cells expressing all combinations of ErbB proteins has been described (Alimandi et al., 1997; Pinkas-Kramarski et al., 1996; Shelly et al., 1998). Cells were maintained in RPMI medium with 10% fetal bovine serum (FBS) and dilute IL3-containing conditioned medium. Prior to proliferation assays, cells were washed three times in RPMI/FBS and plated (5×10^5 cells/ml; 0.1 ml/well) into 96-well flat-bottomed plates with the indicated liconcentrations or with IL-3 (1:1000 dilution of conditioned medium). Cell survival was determined 24 hours later, or after the indicated time intervals, by MTT assay, as previously described (Mosman, 1983). MTT (0.05 mg/ml) was incubated with the analyzed cells for 2 hours at 37 C. Living cells can transform the tetrazolium ring into dark blue formazan crystals, that can be quantified by reading the optical density at 540-630 nm after lysis of the cells with acidic isopropanol. […]
On the technique in general: Tetrazolium dyes change colour on reduction, which living cells bring about.

Experiment [2] has as its system D12 cells (32D co-expressing ErbB-1 and ErbB-2). The experiment can be described thus: Long-term cell survival assay in the absence of IL-3 (MTT). Type of experiment: cell-based. The following applies: ligand 100 ng/ml, FIG. 3B. As for the experimental part:
FIG. 3b show survival effect of NRG-4 on ErbB-expressing derivatives of 32D cells. The indicated derivatives of 32D cells were incubated for various time intervals in the absence of IL-3. […] For control, cells were incubated with medium conditioned by IL-3-producing cells (open triangles), or with no factor (open circles). The extent of cell proliferation was determined daily by using the calorimetric MTT assay. The data presented are the mean±S.D. of 4 determinations. Note that co-expression of ErbB-1 and ErbB-2 (D12 cells) enabled cell survival in the absence of IL-3. The experiment was repeated twice with similar results.
as §1, with “Prior to proliferation assays, cells were washed three times in RPMI/FBS and plated (5×10^5 cells/ml; 0.1 ml/well) into 96-well flat-bottomed plates with the indicated liconcentrations or with IL-3 (1:1000 dilution of conditioned medium).” left out

For “EGF: EGF (human, recombinant) purchased from Boehringer Mannheim (NSDSECPLSHDGYCLHDGVCMYIEALDKYACNCVVGYIGERCQYRDLKWWELR) [reference compound]”, the “mitogenic response of D1 cells” value in experiment [1] is listed as “retained”. For the same substance, the “response of D12 cells (high basal proliferation activity)” value in experiment [2] is “still responded”.
